Consider 16 compounds from article PMC4894417, “Quantitative High-Throughput Profiling of Environmental Chemicals and Drugs that Modulate Farnesoid X Receptor” (Scientific Reports, 2014).

Like-named read-outs stand apart in the source and are kept apart here.

The target of data set [1] is T1, human FXR (Homo sapiens, UniProt Q96RI1). The experiment in a line: FXR-bla reporter gene assay, agonist mode (qHTS). The following applies: for FXR agonist EC50: Table S3, FXR-active drugs; for FXR agonist mode EC50: Table S1, primary screening.
T1 sequence (Q96RI1 with tags, fused parts or gaps limits assumed): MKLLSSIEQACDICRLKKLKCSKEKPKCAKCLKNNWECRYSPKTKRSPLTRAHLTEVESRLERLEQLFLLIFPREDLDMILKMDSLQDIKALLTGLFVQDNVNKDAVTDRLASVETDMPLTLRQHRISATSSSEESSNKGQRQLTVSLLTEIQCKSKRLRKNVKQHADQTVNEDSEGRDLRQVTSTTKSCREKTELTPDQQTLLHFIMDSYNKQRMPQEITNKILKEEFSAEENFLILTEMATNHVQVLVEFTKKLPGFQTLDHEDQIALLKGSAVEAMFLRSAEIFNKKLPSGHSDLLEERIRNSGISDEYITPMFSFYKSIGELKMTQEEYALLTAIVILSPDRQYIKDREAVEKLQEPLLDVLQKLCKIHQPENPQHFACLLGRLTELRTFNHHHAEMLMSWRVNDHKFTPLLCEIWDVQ
Data set [2] deals with T1, human FXR. The data set is described as follows: FXR-bla reporter gene assay, antagonist mode (CDCA-induced transactivation). The following applies: for FXR antagonist activity: FXR-bla assay. In general terms: Reporter assays use an easily measured gene product as a stand-in for the process of interest.
Data set [3] relates to FXR-UAS-bla HEK293T cells. The experiment in a line: Cell viability assay (CellTiter Glo) in the same well as FXR-bla. (In ATP-based viability assays light output follows the ATP content of the culture.)
Setting [4] is: Table S1, primary screening, 50 µM CDCA.

For the compound `CCOc1ccc2nc3cc(N)ccc3c(N)c2c1` [Ethacridine], on human FXR [1], the response was half-maximal at 21.4 ± 12 µM (EC50). Also, at human FXR [1] (Table S3), the “FXR agonist Efficacy” value was found to be 31 ± 11%. Further, at human FXR [2] (Table S3, 50 µM CDCA), the “FXR antagonist Efficacy” value is 75 ± 17%.
Consider `C#C[C@]1(O)CC[C@H]2[C@@H]3CCc4cc(O)ccc4[C@H]3CC[C@@]21C` [Ethinylestradiol], for which the “Cytotoxicity Efficacy” value in data set [3] (Table S1, primary screening) worked out at 36 ± 47%; in data set [3] (Table S3) it was 36 ± 47%.
Take `CC[C@]1(O)CC[C@H]2[C@@H]3CCC4=CCCC[C@@H]4[C@H]3CC[C@@]21C` [Ethylestrenol]: the “FXR agonist EC50” value on human FXR [1] is “Inactive”. At human FXR [2], the “FXR antagonist Efficacy” value turned out to be 66 ± 11%.
`CN1CC[C@H](c2c(O)cc(O)c3c(=O)cc(-c4ccccc4Cl)oc23)[C@H](O)C1` [Flavopiridol]: the “Cell viability IC50” value in data set [3] (Table 1, mean ± SD of 3 experiments) is “Inactive”.
As to `CC(C)[C@H](Nc1ccc(C(F)(F)F)cc1Cl)C(=O)OC(C#N)c1cccc(Oc2ccccc2)c1` (stereo partly drawn) [Fluvalinate], the “FXR agonist mode EC50” value on human FXR [1] is recorded as “Inactive”. Moreover, the “Cytotoxicity IC50” value in data set [3] (Table S1, primary screening) was “Inactive”. At human FXR [2], the “FXR antagonist mode Efficacy” value came out at 53 ± 3. Further, the IC50 on human FXR [2] (FXR antagonist mode IC50) worked out at 30.3 ± 12 µM.
Take `C[C@]12CC[C@@H]3c4ccc(O)cc4C[C@@H](CCCCCCCCC[S+]([O-])CCCC(F)(F)C(F)(F)F)[C@H]3[C@@H]1CC[C@@H]2O` (stereo partly drawn) [Fulvestrant]: in data set [3] (Table S1, primary screening), the “Cytotoxicity IC50” value was “Inactive”.
Same read-out and setting: next, `CC(C)c1onc(-c2c(Cl)cccc2Cl)c1COc1ccc(/C=C/c2cccc(C(=O)O)c2)c(Cl)c1` [GW4064]: “Inactive”.
Take `CC[C@H](C)[C@H]1O[C@]2(CC[C@@H]1C)C[C@@H]1C[C@@H](C/C=C(\C)[C@@H](O[C@H]3C[C@H](OC)[C@@H](O[C@H]4C[C@H](OC)[C@@H](O)[C@H](C)O4)[C@H](C)O3)[C@@H](C)/C=C/C=C3\CO[C@@H]4[C@H](O)C(C)=C[C@@H](C(=O)O1)[C@]34O)O2` [Ivermectin B1a]: the “Cytotoxicity Efficacy” value in data set [3] (Table S1, primary screening) amounted to 124 ± 6%; in data set [3] (Table S3), 124 ± 6%. Moreover, in data set [3] (read-out: Cytotoxicity IC50, Table S1, primary screening), the IC50 amounted to 14.1 ± 2.63 µM.
In the case of `COC(=O)C1=C(C)NC(C)=C(C(=O)OC(C)(C)CN(C)CCC(c2ccccc2)c2ccccc2)C1c1cccc([N+](=O)[O-])c1` (stereo not drawn) [Lercanidipine], at human FXR [1], the “FXR agonist mode EC50” value was “Inactive”. The “Cytotoxicity IC50” value in data set [3] (Table S1, primary screening) is “Inactive”. This compound came in with an IC50 against human FXR [2] of 15.5 ± 9.59 µM. Besides, the “FXR antagonist Efficacy” value on human FXR [2] (Table S3, 50 µM CDCA) was -71 ± 10%.
In the case of `CO[C@@]12[C@H](COC(N)=O)C3=C(C(=O)C(C)=C(N)C3=O)N1C[C@@H]1N[C@@H]12` [Mitomycin C], the “FXR agonist EC50” value on human FXR [1] was “Inactive”. In addition, the “FXR antagonist Efficacy” value at human FXR [2] (Table S3, 50 µM CDCA) is on record as 62 ± 4%.
As to `CO/N=C1\C[C@]2(C[C@@H]3C[C@@H](C/C=C(\C)C[C@@H](C)/C=C/C=C4\CO[C@@H]5[C@H](O)C(C)=C[C@@H](C(=O)O3)[C@]45O)O2)O[C@H](/C(C)=C/C(C)C)[C@H]1C` [Moxidectin, moxidectin], the “FXR agonist activity” value on human FXR [1] (FXR-bla assay) is given as “did not show agonist activity”.
In the case of `COc1cccc2c1C(=O)c1c(O)c3c(c(O)c1C2=O)C[C@@](O)(C(=O)CO)C[C@@H]3O[C@H]1C[C@H](N2CCO[C@H](OC)C2)[C@H](O)[C@H](C)O1` [Nemorubicin], in data set [3], the “Cell viability IC50” value is “Inactive”.
For `COC(=O)C1=C(C)NC(C)=C(C(=O)OC)C1c1ccccc1[N+](=O)[O-]` [Nifedipine], on human FXR [1], the “FXR agonist mode EC50” value is reported as “Inactive”. Further, the “FXR antagonist activity” value at human FXR [2] (CDCA-induced) is reported as “antagonists”. The IC50 against human FXR [2] (IC50, FXR-bla antagonist mode, primary screening, CDCA-induced) was 34 µM. Also, the “FXR antagonist mode Efficacy” value at human FXR [2] (setting [4]) is on record as 66 ± 46%.
On to `COC(=O)C1=C(C)NC(C)=C(C(=O)OCC(C)C)C1c1ccccc1[N+](=O)[O-]` (stereo not drawn) [Nisoldipine], for which the “FXR agonist mode EC50” value on human FXR [1] is “Inactive”. In addition, the “Cytotoxicity IC50” value in data set [3] (Table S1, primary screening) is “Inactive”. Besides, the IC50 on human FXR [2] is 32.6 ± 20.2 µM. On human FXR [2] (CDCA-induced), the “FXR antagonist activity” value is on record as “antagonists”. The “FXR antagonist mode Efficacy” value at human FXR [2] (setting [4]) is 73 ± 29%.
For `CCCCc1ccc2[nH]c(NC(=O)OC)nc2c1` [Parbendazole], the “FXR agonist mode EC50” value at human FXR [1] was “Inactive”. The “Cytotoxicity IC50” value in data set [3] (Table S1, primary screening) is “Inactive”. Besides, at human FXR [2], the “FXR antagonist mode Efficacy” value was 43 ± 3%. The compound also had an IC50 at human FXR [2] (FXR antagonist mode IC50) of 0.16 ± 0.14 µM.
Take `CCC1=C[C@@H]2CN(C1)Cc1c([nH]c3ccccc13)[C@@](C(=O)OC)(c1cc3c(cc1OC)N(C)[C@H]1[C@@](O)(C(=O)OC)[C@H](OC(C)=O)[C@]4(CC)C=CCN5CC[C@]31[C@@H]54)C2` [Vinorelbine]: the “Cytotoxicity Efficacy” value in data set [3] (Table S3) stood at 41 ± 5%.

Broadly, the EC50 is the concentration that produces a half-maximal response. Higher therefore signals weaker potency. What is called IC50 is the concentration that gives 50% inhibition.
